Drawing on ChEMBL document CHEMBL3739356, “Combination of 4-anilinoquinazoline, arylurea and tertiary amine moiety to discover novel anticancer agents” (Bioorg Med Chem, 2016), this text covers IC50 and Activity for 31 compounds.

Calls of active or inactive are those of the source. No cut-off for these calls is given here.

One series concerns A-431. The experiment in a line: Antiproliferative activity against human A431 cells after 72 hrs by MTT assay. The format is functional, cell-based. The note with it: A-431, 72 h.
The subject of series [1] is A549. The experiment in a line: Antiproliferative activity against human A549 cells after 72 hrs by MTT assay. The format is functional, cell-based. The note with it: A549, 72 h.
The test system of the next series is Mus musculus. The experiment in a line: Toxicity in nude BALB/C mouse assessed as weight loss at 50 mg/kg, po qd for 12 days. The note with it: in vivo, 288 h. It is filed as organism-based.
In series [2] the test system is A549. The experiment in a line: Anticancer activity against human A549 cells xenografted in nude BALB/C mouse assessed as decrease in tumor volume at 50 mg/kg, po qd for 12 days. The format is functional, organism-based.
The target in series [3] is Vascular endothelial growth factor receptor 2 (Homo sapiens, UniProt P35968). The experiment in a line: Inhibition of VEGFR-2 (unknown origin) assessed as ATP level by luminescence analysis.
Sequence of Vascular endothelial growth factor receptor 2 (P35968 whole entry): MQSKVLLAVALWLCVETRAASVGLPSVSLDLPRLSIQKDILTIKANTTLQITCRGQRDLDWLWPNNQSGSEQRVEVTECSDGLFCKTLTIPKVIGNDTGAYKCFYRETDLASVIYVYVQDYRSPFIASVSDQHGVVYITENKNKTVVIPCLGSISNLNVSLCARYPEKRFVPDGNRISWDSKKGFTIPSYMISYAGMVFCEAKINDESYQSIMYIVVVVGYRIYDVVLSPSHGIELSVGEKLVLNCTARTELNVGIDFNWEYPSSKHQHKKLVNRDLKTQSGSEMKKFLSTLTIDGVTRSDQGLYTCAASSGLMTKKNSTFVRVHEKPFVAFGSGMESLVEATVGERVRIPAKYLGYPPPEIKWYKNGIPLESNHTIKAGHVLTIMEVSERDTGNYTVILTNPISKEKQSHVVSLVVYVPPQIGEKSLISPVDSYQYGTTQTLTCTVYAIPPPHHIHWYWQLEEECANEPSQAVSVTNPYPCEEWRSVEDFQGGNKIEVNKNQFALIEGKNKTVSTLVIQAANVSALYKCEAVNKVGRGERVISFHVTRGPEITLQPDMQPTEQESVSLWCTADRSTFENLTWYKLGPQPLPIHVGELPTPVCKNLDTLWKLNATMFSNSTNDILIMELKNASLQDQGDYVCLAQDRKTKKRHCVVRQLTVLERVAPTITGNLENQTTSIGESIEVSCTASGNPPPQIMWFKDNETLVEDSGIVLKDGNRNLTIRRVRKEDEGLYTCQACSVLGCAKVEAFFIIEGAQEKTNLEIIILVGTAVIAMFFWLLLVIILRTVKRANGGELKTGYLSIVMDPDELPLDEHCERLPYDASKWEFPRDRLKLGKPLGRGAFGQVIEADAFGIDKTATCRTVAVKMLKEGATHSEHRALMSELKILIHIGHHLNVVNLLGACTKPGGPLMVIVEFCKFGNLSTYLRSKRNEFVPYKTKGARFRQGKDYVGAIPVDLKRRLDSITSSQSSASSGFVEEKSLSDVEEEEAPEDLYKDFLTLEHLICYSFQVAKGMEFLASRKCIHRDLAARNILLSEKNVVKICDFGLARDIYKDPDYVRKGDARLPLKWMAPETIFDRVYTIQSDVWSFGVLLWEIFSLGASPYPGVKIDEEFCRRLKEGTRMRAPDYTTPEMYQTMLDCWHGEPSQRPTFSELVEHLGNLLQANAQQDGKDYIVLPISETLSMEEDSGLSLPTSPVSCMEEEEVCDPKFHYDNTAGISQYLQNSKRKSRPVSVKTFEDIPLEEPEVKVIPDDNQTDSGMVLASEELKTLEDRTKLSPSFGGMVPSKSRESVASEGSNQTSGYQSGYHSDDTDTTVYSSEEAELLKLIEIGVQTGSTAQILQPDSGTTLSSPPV
Series [4] addresses Epidermal growth factor receptor (Homo sapiens, UniProt P00533). Description: Inhibition of wild-type EGFR tyrosine kinase (unknown origin) assessed as ATP level by luminescence analysis.
Series [5] deals with Epidermal growth factor receptor (Homo sapiens, UniProt P00533, L858R). Description: Inhibition of EGFR tyrosine kinase L858R mutant (unknown origin) assessed as ATP level by luminescence analysis. The format is protein assay.
Sequence of Epidermal growth factor receptor (Homo sapiens, UniProt P00533, L858R) (P00533 25-1210 L858R limits assumed): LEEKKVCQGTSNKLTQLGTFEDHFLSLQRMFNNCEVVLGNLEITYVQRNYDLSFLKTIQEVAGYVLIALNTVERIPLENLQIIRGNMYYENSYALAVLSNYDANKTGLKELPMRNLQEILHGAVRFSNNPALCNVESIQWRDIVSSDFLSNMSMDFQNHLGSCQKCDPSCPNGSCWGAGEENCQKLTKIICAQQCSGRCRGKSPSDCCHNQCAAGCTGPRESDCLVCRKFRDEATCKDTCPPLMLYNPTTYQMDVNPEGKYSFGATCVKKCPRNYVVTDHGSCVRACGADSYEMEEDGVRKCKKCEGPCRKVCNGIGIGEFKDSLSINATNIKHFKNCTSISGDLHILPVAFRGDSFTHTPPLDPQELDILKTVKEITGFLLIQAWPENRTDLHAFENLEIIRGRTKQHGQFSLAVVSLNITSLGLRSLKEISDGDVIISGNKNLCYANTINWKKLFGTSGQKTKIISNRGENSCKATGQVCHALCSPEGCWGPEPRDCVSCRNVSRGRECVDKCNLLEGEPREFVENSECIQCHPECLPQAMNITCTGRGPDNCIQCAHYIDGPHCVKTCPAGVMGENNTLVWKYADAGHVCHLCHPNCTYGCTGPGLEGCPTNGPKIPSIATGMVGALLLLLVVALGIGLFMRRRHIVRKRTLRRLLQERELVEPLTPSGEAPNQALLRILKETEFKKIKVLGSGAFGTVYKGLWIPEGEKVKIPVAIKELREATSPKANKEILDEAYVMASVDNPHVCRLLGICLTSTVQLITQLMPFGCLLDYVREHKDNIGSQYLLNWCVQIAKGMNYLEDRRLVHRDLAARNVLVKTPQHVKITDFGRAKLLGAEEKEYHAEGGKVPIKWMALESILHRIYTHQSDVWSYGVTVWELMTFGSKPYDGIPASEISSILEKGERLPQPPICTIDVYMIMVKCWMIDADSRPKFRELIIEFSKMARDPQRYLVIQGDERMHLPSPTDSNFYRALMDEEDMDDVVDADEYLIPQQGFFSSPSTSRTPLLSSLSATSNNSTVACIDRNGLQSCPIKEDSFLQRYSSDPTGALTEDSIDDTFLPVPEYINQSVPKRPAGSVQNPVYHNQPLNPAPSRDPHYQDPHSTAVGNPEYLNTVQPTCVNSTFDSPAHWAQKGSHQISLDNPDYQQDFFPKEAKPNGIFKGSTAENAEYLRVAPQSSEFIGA

Sequence of Epidermal growth factor receptor (Homo sapiens, UniProt P00533) (P00533 whole entry): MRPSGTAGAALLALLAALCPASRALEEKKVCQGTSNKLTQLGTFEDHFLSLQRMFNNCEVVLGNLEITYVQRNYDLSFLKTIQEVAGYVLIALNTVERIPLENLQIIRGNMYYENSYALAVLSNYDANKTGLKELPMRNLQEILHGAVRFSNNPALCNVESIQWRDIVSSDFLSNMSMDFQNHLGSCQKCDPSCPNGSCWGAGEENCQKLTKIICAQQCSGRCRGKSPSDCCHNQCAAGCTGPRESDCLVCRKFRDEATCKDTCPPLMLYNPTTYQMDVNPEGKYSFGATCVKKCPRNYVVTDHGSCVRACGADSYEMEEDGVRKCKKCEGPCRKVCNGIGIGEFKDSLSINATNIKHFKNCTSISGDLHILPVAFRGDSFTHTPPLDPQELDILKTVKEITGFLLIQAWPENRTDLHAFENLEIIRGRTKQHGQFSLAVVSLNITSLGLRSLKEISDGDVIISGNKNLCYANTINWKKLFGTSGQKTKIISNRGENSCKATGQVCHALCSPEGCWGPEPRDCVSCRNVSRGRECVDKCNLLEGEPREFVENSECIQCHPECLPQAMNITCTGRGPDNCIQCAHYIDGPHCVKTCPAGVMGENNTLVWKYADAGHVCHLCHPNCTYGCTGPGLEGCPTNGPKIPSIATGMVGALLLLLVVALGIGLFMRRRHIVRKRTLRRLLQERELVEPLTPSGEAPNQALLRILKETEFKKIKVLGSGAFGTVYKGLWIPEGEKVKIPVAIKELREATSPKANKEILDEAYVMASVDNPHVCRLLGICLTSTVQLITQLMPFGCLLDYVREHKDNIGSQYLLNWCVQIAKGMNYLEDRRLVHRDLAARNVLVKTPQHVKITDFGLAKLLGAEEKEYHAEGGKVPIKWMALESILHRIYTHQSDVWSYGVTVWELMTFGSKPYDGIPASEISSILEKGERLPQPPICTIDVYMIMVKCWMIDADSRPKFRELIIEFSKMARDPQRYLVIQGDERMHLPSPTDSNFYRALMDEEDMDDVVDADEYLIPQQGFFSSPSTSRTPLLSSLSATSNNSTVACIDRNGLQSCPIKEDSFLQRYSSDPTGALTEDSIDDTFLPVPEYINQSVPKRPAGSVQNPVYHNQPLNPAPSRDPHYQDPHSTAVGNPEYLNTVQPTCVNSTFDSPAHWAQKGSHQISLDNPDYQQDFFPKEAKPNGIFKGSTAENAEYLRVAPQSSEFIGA

Turning to `CN1CCN(C(=O)c2ccc(NC(=O)Nc3ccc4ncnc(Nc5cccc(C(F)(F)F)c5)c4c3)cc2)CC1`, the IC50 in the series with A-431 was > 10 µM; in the series on A549 [1] it was 8.31 µM.
The like results for `CCN(CC)c1ccc(NC(=O)Nc2ccc3ncnc(Nc4cccc(C(F)(F)F)c4)c3c2)cc1` were, in that order, 6.46 µM and 3.52 µM.
With `CN1CCN(C(=O)c2ccc(NC(=O)Nc3ccc4ncnc(Nc5ccc(F)c(Cl)c5)c4c3)cc2)CC1`, the IC50 in the series on A-431 and in the series with A549 [1] was > 10 µM throughout.
Consider `C#Cc1cccc(Nc2ncnc3ccc(NC(=O)Nc4ccc(CN(CC)CC)cc4)cc23)c1`, for which the results for the IC50 in the series with A-431 and with A549 [1] were 1.24 µM and 2.25 µM, respectively.
The like results for `CN(C)Cc1ccc(NC(=O)Nc2ccc3ncnc(Nc4cccc(C(F)(F)F)c4)c3c2)cc1` were, in that order, 1.03 µM and 1.12 µM.
The corresponding values for `C#Cc1cccc(Nc2ncnc3ccc(NC(=O)Nc4ccc(CN5CCN(C)CC5)cc4)cc23)c1` are 2.81 µM and 5.17 µM.
For the compound `C#Cc1cccc(Nc2ncnc3ccc(NC(=O)Nc4ccc(C(=O)N5CCN(C)CC5)cc4)cc23)c1`, the IC50 with A-431 and in the series on A549 [1] was > 10 µM each time.
With `O=C(Nc1ccc(CN2CCOCC2)cc1)Nc1ccc2ncnc(Nc3cccc(C(F)(F)F)c3)c2c1`, the IC50 is 8.49 µM in the series with A-431 and 4.03 µM in the series with A549 [1].
Regarding `COc1cc2ncnc(Nc3ccc(F)c(Cl)c3)c2cc1OCCCN1CCOCC1` [GEFITINIB], the Activity entry with Mus musculus is “Non-toxic”. Also, the outcome in the series on A549 [2] was Active.
Regarding `O=C(Nc1ccc(C(=O)N2CCOCC2)cc1)Nc1ccc2ncnc(Nc3ccc(F)c(Cl)c3)c2c1`, the IC50 in the series on A-431 and with A549 [1] was > 10 µM in each case.
Consider `C[C@@H](Nc1ncnc2ccc(NC(=O)Nc3ccc(CN4CCN(C)CC4)cc3)cc12)c1ccccc1`, for which the concentration for half-maximal inhibition (IC50) with A-431 and with A549 [1] was > 10 µM throughout.
For `C[C@@H](Nc1ncnc2ccc(NC(=O)NCCN3CCN(C)CC3)cc12)c1ccccc1`, the IC50 with A-431 and in the series on A549 [1] was > 10 µM throughout.
Take `O=C(Nc1cccc(CN2CCCC2)c1)Nc1ccc2ncnc(Nc3cccc(C(F)(F)F)c3)c2c1`: the IC50 with A-431 came out at 1.23 µM; with A549 [1], 0.86 µM.
The corresponding values for `CN1CCN(C(=O)c2ccc(NC(=O)Nc3ccc4ncnc(Nc5ccc(OCc6cccc(F)c6)c(Cl)c5)c4c3)cc2)CC1` are > 10 µM and 7.39 µM.
As to `CN1CCN(Cc2ccc(NC(=O)Nc3ccc4ncnc(Nc5ccc(OCc6cccc(F)c6)c(Cl)c5)c4c3)cc2)CC1`, the IC50 in series [3] was > 1 µM; in the series with A-431, 0.64 µM; with A549 [1] it was 0.9 µM.
`C#Cc1cccc(Nc2ncnc3ccc(NC(=O)Nc4ccc(CN5CCOCC5)cc4)cc23)c1`: the 50% inhibitory concentration (IC50) in the series with A-431 and with A549 [1] was > 10 µM in each case.
As to `COc1ccc(NC(=O)Nc2ccc3ncnc(Nc4cccc(C(F)(F)F)c4)c3c2)cc1`, the IC50 came out at 4.95 µM in the series on A-431 and 9.47 µM in the series on A549 [1].
The corresponding values for `CCN(CC)Cc1ccc(NC(=O)Nc2ccc3ncnc(Nc4cccc(C(F)(F)F)c4)c3c2)cc1` are 3.98 µM and 2.07 µM.
With `CN1CCN(Cc2ccc(NC(=O)Nc3ccc4ncnc(Nc5cccc(C(=O)N6CCCC6)c5)c4c3)cc2)CC1`, the IC50 in the series with A-431 and in the series on A549 [1] was > 10 µM in each case.
For `O=C(Nc1cccc(CN2CCCCC2)c1)Nc1ccc2ncnc(Nc3cccc(C(F)(F)F)c3)c2c1`, the half-maximal inhibitory concentration (IC50) in the series with A-431 is 1.33 µM; with A549 [1] it was 1.06 µM.
The corresponding values for `CN1CCN(Cc2ccc(NC(=O)Nc3ccc4ncnc(Nc5ccc(F)c(Cl)c5)c4c3)cc2)CC1` are 4 µM and 3.48 µM.
As for `CN1CCN(CCNC(=O)Nc2ccc3ncnc(Nc4cccc(C(F)(F)F)c4)c3c2)CC1`, the IC50 in the series with A-431 and with A549 [1] was > 10 µM in each case.
For `COC(=O)c1cccc(Nc2ncnc3ccc(NC(=O)Nc4ccc(CN5CCN(C)CC5)cc4)cc23)c1`, the values for the half-inhibitory concentration (IC50) with A-431 and with A549 [1] were 5.63 µM and > 10 µM, respectively.
As to `COc1ccc(Nc2ncnc3ccc(NC(=O)Nc4ccc(CN5CCN(C)CC5)cc4)cc23)cc1Cl`, the 50% inhibitory concentration (IC50) with A-431 stood at 2.01 µM; in the series with A549 [1], 3.57 µM.
The like results for `CN1CCN(Cc2ccc(NC(=O)Nc3ccc4ncnc(Nc5ccc(F)c(F)c5)c4c3)cc2)CC1` were, in that order, > 10 µM and > 10 µM.
The corresponding values for `CN1CCN(Cc2ccc(NC(=O)Nc3ccc4ncnc(Nc5cccc(C(F)(F)F)c5)c4c3)cc2)CC1` are 2.41 µM and 1.65 µM.
The corresponding values for `Cc1ccc(NC(=O)Nc2ccc3ncnc(Nc4cccc(C(F)(F)F)c4)c3c2)cc1` are > 10 µM and 4.14 µM.
Take `O=C(Nc1ccc(CN2CCCCC2)cc1)Nc1ccc2ncnc(Nc3cccc(C(F)(F)F)c3)c2c1`: the IC50 in series [4] is 0.005 µM; with A-431, 1.55 µM; in series [5], 0.0105 µM; in the series on A549 [1], 1.05 µM.
Turning to `O=C(Nc1ccccc1)Nc1ccc2ncnc(Nc3cccc(C(F)(F)F)c3)c2c1`, the IC50 in the series on A-431 and in the series on A549 [1] was > 10 µM throughout.
As for `CN1CCN(c2ccc(NC(=O)Nc3ccc4ncnc(Nc5cccc(C(F)(F)F)c5)c4c3)cc2)CC1`, the IC50 with A-431 stood at 2.2 µM; with A549 [1] it was 2.76 µM.
With `O=C(Nc1ccc(CN2CCCC2)cc1)Nc1ccc2ncnc(Nc3cccc(C(F)(F)F)c3)c2c1`, the IC50 in series [3] was determined as 0.565 µM; in series [4], 0.0041 µM; in the series with A-431, 1.36 µM; in series [5] it was 0.0115 µM; in the series with A549 [1] it was 0.83 µM. In the series on Mus musculus, the Activity entry is “Non-toxic”. Also, the result in the series with A549 [2] was Active.
